Values quoted from earlier work in patent publication US9820973B2, “Pharmaceutical formulation comprising losartan potassium and chlorthalidone” (Merck Sharp & Dohme B.V., priority 2013, dated 2017).

Row | Solubility (in words) (across the physiologic pH range) | Dissolution of the salt (in words) (neutral to basic media) | SMILES | Behaviour of the salt (in words) (acidic media)
1 | low solubility |  | NS(=O)(=O)c1cc(C2(O)NC(=O)c3ccccc32)ccc1Cl (racemic) [chlorthalidone, (RS)-2-chloro-5-(1-hydroxy-3-oxo-2,3-dihydro-1H-isoindol-1-yl)benzene-1-sulfonamide] | 
2 |  | readily dissolves | CCCCc1nc(Cl)c(CO)n1Cc1ccc(-c2ccccc2-c2nnn[nH]2)cc1 [Losartan potassium, 2-butyl-4-chloro-1-[p-(o-1H-tetrazol-5-ylphenyl)-benzyl]imidazole-5-methanol] | the salt dissociates and the losartan free acid precipitates as a gel layer
